Experiment [1] has as its target T1, Pseudomonas PBP 1A (Pseudomonas aeruginosa, UniProt Q07806).
T1 construct: endogenous in cells
The experiment can be described thus: PBP binding assay (Bocillin FL competition). Conditions: Pseudomonas PBP 1A; read-out: IC50 (converted). Here is the method: (§1) The phrase “selective and high affinity PBP binder” refers to a PBP binder which binds to only one PBP with very high affinity. In general, the term “selective and high affinity PBP binder” also includes those binders where a substantial fraction of binder selectively binds to only one PBP with high affinity. […]. The term “IC50 value” of a compound refers to the concentration of the compound that reduces the binding of Bocillin-FL to PBPs by 50% as compared to when no compound was added to the reaction.
(§2) A compound of Formula (III) was prepared using the procedure disclosed in PCT International Application No. PCT/IB2012/054290 and was evaluated for its PBP binding affinity profile. […] The reaction mixtures were then denatured with 20 μl each of SDS-denaturing solution at 100° C. for 3 min PBPs were separated through 10% SDS polyacrylamide gel electrophoresis (Bio-Rad Laboratories, Hercules, Calif.). The protein gels were rinsed in water immediately after electrophoresis. […] […].

Experiment [2] concerns the target Pseudomonas PBP 5/6 (Pseudomonas aeruginosa, UniProt G3XD74). The experiment can be described thus: PBP binding assay (Bocillin FL competition). To be noted: read-out: IC50. The method, then:
as §1, §2

Experiment [3] deals with E. coli ATCC 25922. The experiment can be described thus: Microbiological drug diffusion assay, standalone compounds in absence of beta-lactamase enzymes. Format: cell-based. Conditions: Escherichia coli, ATCC25922, 40 μg/ml, no beta-lactamase, read-out: Inhibition zone diameter. The method, then:
(§3) Next, the beta-lactamase stability of some of these compounds was evaluated. In a typical stability study, ESBL enzymes from K. pneumoniae S48 producing Metalo betalactamase (NDM4) and Class A (CTX-M, SHV, TEM) beta-lactamase were isolated from freshly grown culture by 5 repetitive cycles of freeze and thaw in liquid nitrogen. […] After the stipulated incubation duration, the test compounds were extracted from the reaction mixture by the addition of 0.5 ml of Acetonitrile in 1:1 ratio (final concentration of test compound—40 μg/ml) and centrifuged at 12000 rpm for 2 min to separate precipitated protein. The activity of test compounds was measured from the supernatant by performing microbiological drug diffusion assay. For drug diffusion assay, Muller-Hinton Agar (MHA) seeded with E. coli ATCC 25922 was poured on to a bioassay plate placed on a flat surface and allowed to solidify. Appropriate concentration of the standalone and enzyme treated test compound dilutions were added to 6 mm wells cut with the help of a borer. The antibacterial activity of the test compounds was measured in terms of zones of inhibition appearing after 18-24 hours of incubation at 37° C. Measurement of diameter of zone of inhibition was undertaken to the nearest whole value with the help of ruler.

Experiment [4] concerns ESBL enzymes from K. pneumoniae S48 producing Metalo betalactamase (NDM4) and Class A (CTX-M, SHV, TEM) beta-lactamase. The experiment can be described thus: Beta-lactamase stability study (crude enzyme extract, then drug diffusion assay on E. coli ATCC 25922). Type of experiment: biochemical. To be noted: for Inhibition zone diameter after treatment with beta-lactamase enzyme: 40 μg/ml, zone on E. coli ATCC 25922. Here is the method: as §3

The subject of experiment [5] is K. pneumonia S48 expressing multiple ESBLs including MBL (NDM4) and Class A (CTX-M, SHV, TEM). Type of experiment: cell-based, K. pneumoniae. To be noted: Cefepime 8 μg/ml, Compound of Formula (III) 2 μg/ml, Clavulanic acid 2 μg/ml, Mecillinam 2 μg/ml, Imipenem 8 μg/ml. Here is the method: Log phase cultures were diluted to desired inoculums in flasks with MHB, containing various drug concentrations. Flasks were incubated at 35° C. in orbital shaker with rotational speed of 125 rpm. […] Plates were incubated for 24 hours at 35° C. and colonies were enumerated to determine the colony forming units (CFU) per ml volume.

Experiment [6] relates to K. pneumoniae B88. The experiment can be described thus: MIC determination. Type of experiment: cell-based. To be noted: Klebsiella pneumoniae; K. pneumoniae B88 (NDM, SHV, TEM). Here is the method: (§4) In a typical procedure for determining MIC values, overnight grown bacterial cultures were diluted appropriately and inoculated on the agar media containing doubling concentrations of the test compounds. Observation for growth or no growth was performed after 16-20 hours of incubation at 35±2° C. in ambient air. The overall procedure was performed as per Clinical and Laboratory Standards Institute (CLSI) recommendations (Clinical and Laboratory Standards Institute (CLSI), Performance Standards for Antimicrobial Susceptibility Testing, 20th Informational Supplement, M 100-S20, Volume 30, No. 1, 2010).

In experiment [7] the test system is P. mirabilis G 186. The experiment can be described thus: MIC determination. Conditions: Proteus mirabilis, G186; P. mirabilis G 186 (NDM, TEM). Format: cell-based. The method, then: as §4
The subject of experiment [8] is MDR Klebsiella pneumoniae B 88 producing NDM, SHV & TEM beta-lactamases. The experiment can be described thus: Time kill study at MFC and MSC. Type of experiment: cell-based. To be noted: for Bacterial count: Cefepime 8 mcg/ml (MFC), Compound of Formula (III) 0.12 mcg/ml (MSC), Imepenem 8 mcg/ml.
In experiment [9] the test system is K. pneumoniae B88. The experiment can be described thus: Minimum filamentation / spheroplasting concentration. Conditions: K. pneumoniae B88 (NDM, SHV, TEM); minimum spheroplasting concentration.
Text: The term “MSC” as used herein refers to minimum spheroplasting concentration, which is the minimum concentration of an antibacterial agent at which about 80% of bacterial cells covert into spheroplasts.
The term “MFC” as used herein refers to minimum filamentation concentration, which is the minimum concentration of an antibacterial agent at which about 80% of bacterial cells get elongated to form filament like structures.

Molecules are shown by their SMILES. Where two headings read alike, the source gives them in different places.

Pseudomonas PBP 5/6, sequence (G3XD74 entry or part of it): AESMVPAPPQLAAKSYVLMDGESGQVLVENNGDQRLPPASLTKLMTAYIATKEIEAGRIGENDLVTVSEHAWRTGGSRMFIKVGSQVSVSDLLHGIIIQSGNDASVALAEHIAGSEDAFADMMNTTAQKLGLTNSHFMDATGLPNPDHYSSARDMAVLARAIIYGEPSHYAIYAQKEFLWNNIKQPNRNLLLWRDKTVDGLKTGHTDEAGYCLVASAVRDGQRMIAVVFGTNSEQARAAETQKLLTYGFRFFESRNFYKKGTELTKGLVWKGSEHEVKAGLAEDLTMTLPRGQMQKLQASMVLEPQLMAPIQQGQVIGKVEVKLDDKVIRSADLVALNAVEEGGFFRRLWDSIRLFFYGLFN
T1 sequence (Q07806 whole entry): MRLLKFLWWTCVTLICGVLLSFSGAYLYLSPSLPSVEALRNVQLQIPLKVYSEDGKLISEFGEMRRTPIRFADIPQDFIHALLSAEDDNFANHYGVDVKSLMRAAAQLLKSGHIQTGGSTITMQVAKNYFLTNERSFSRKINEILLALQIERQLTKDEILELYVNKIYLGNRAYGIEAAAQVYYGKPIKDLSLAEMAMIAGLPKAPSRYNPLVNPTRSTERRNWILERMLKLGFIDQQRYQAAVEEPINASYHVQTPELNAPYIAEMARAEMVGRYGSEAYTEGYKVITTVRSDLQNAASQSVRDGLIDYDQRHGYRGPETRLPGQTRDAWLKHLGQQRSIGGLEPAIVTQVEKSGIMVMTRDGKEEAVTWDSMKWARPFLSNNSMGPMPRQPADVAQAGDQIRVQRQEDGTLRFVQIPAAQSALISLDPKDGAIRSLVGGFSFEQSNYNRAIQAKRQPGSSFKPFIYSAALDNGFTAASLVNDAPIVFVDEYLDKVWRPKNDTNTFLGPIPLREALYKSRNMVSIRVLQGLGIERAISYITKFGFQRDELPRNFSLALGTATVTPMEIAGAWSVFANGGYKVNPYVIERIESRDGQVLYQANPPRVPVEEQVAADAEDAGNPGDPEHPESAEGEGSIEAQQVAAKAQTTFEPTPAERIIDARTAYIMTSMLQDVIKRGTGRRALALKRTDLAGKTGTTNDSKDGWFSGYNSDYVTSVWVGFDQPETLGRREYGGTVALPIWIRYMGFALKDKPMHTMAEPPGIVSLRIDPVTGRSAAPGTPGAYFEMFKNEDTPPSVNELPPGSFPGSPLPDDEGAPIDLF

Usually IC50 stands for the midpoint of a concentration-inhibition curve. Broadly, the MIC is the lowest concentration that inhibits growth of the organism. For the compound `O=C(NNC(=O)[C@@H]1CC[C@@H]2CN1C(=O)N2OS(=O)(=O)O)[C@@H]1CCCNC1` [Compound of Formula (III), trans-(2S,5R)-sulfuric acid mono-[2-(N′—[(R)-piperidin-3-carbonyl]-hydrazino Carbonyl)-7-oxo-1,6-diaza-bicyclo[3.2.1]oct-6-yl] Ester], the IC50 in experiment [1] and in experiment [2] was more than 10.2 µM each time. Also, the zone of inhibition at 40 µg/mL in experiment [3] (0 hour), in [3] (1 hour), in [3] (2 hours) and in experiment [3] (24 hours) was 16 mm in each case. Moreover, the “Inhibition zone diameter after treatment with beta-lactamase enzyme” value in experiment [4] (0 hour incubation at 37° C.), in experiment [4] (1 hour incubation at 37° C.), in experiment [4] (2 hours incubation at 37° C.) and in [4] (24 hours incubation at 37° C.) was 16 mm throughout. In addition, the “Stability to beta-lactamase (in words)” value in experiment [4] (carbapenem hydrolyzing metallo beta-lactamase, up to 24 hours) was “stable and not inactivated by the beta-lactamase”. For the same compound, the Bacterial count is given as 5.5 log (CFU/ml) in experiment [5] (0 hour); 5.4 log (CFU/ml) in experiment [5] (2 hours); 3.5 log (CFU/ml) in [5] (4 hours); 3.6 log (CFU/ml) in experiment [5] (6 hours); 6.14 Log10 CFU/ml in [8] (0 hour); 7.3 Log10 CFU/ml in experiment [8] (2 hours). Further, the Bacterial count in [8] (4 hours) is on record as 7.8 Log10 CFU/ml; in [8] (6 hours), 7.9 Log10 CFU/ml; in experiment [8] (8 hours), 8.5 Log10 CFU/ml. Besides, the MIC in experiment [6] is 8 µg/mL; in experiment [7], more than 64 µg/mL. Besides, the “Antibacterial activity (in words)” value in experiment [8] (Klebsiella pneumoniae B 88, at MFC and MSC concentration, Table 13) is “did not exhibit antibacterial activity”. Further, the MSC in [9] stood at 0.12 µg/mL.

The values are drawn from patent publication US20170172994A1, “COMPOSITIONS AND METHODS FOR TREATING BACTERIAL INFECTIONS” (WOCKHARDT LIMITED, priority 2013, published 2017).
